{"source": "paper PMC6117024", "about": "“NOP receptor pharmacological profile – A dynamic mass redistribution study” (PLoS ONE, 2018)", "key": {"[1]": {"target": "human Nociceptin/Orphanin FQ (N/OFQ) peptide NOP receptor (human) (UniProt P41146)", "sequence (P41146 whole entry)": "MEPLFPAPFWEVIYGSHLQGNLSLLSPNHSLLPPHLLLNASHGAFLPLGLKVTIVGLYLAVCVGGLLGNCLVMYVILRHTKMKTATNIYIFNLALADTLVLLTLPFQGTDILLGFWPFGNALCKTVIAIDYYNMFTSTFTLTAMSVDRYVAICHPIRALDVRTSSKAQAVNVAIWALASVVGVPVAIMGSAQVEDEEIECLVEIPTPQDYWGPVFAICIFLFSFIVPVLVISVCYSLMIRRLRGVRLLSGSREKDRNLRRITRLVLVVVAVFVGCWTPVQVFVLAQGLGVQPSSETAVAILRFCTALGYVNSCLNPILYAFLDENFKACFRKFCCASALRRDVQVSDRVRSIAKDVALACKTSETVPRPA"}, "[2]": {"target": "human Nociceptin/Orphanin FQ (N/OFQ) peptide NOP receptor (human) (UniProt P41146)", "remark": "listed apart in the source"}, "CHO cells": {"tested_on": "CHO cells", "assay": "DMR in wild type CHO cells", "conditions": "for DMR response, CHO: CHO cells, pm ± sem"}, "human NOP receptor [3]": {"target": "T1, human NOP receptor (Homo sapiens, UniProt P41146)", "T1 sequence (P41146 whole entry)": "as above", "assay": "DMR assay in CHONOP cells, agonist effects", "conditions": "for Emax: DMR maximal effect; for DMR response, CHONOP: pm ± sem; for maximal effects compared with N/OFQ: DMR; for pEC50: DMR peak, at least 3 experiments in triplicate, inactive = no DMR response up to 1 μM, parentheses: CL95% (Fig 3)"}, "NOP receptor": {"tested_on": "NOP receptor", "conditions": "cited from earlier work", "excerpt": "This is in general in line with literature reports (see Table 2 of [3] that summarizes the action of these compounds in various assays/preparations at human recombinant and rodent native NOP receptors). However, there are some aspects that deserve attention."}, "human NOP receptor [4]": {"target": "T1, human NOP receptor", "assay_type": "cell-based", "parameters": "expressed in transfected cells", "conditions": "comparison N/OFQ and Ac-RYYRIK-NH2"}, "human NOP receptor [5]": {"target": "T1, human NOP receptor", "assay": "DMR assay in CHONOP cells, antagonism of agonist concentration response curve"}, "mu opioid receptor": {"target": "mu opioid receptor (UniProt P35372)", "sequence (P35372 whole entry)": "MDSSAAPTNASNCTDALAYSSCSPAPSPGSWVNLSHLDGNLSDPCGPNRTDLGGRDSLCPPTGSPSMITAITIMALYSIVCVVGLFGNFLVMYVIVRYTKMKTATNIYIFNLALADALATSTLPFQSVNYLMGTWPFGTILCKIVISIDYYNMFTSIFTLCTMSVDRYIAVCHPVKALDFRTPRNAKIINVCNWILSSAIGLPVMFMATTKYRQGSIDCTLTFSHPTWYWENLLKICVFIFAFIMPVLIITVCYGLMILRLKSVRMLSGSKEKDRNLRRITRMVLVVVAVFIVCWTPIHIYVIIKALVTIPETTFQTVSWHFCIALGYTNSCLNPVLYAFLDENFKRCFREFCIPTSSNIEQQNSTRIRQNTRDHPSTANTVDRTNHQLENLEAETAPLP"}, "[6]": {"tested_on": "NOP receptor (transfected neurons)", "conditions": "electrophysiology; cited from earlier work"}, "[7]": {"tested_on": "NOP receptor (control neurons)", "conditions": "electrophysiology; cited from earlier work"}, "human NOP receptor [8]": {"target": "T1, human NOP receptor", "assay": "Classical Schild protocol, DMR in CHONOP cells"}, "[9]": {"conditions": "1 μM, 37°C, * p < 0.05 vs buffer (one-way ANOVA, Dunnett's)"}, "[10]": {"conditions": "CHONOP cells, 1 μM, 37°C, * p < 0.05 vs buffer (one-way ANOVA, Dunnett's)"}, "[11]": {"conditions": "CHONOP cells, 100 μM, * p < 0.05 vs buffer"}}, "data": [{"compound": "UFP-112 (peptide)", "values": [{"measurement": "intrinsic activity α (Emax relative to N/OFQ), DMR, CHONOP cells (relative to N/OFQ)", "setting": "[1]", "value": 1.21}, {"measurement": "pEC50 of the DMR response (peak), CHONOP cells", "setting": "[1]", "value": "8.66 -log10(M)"}, {"measurement": "DMR response at 1 μM, CHONOP cells", "setting": "[2]", "value": 248, "unit": "pm"}]}, {"compound": "[Arg^14,Lys^15]N/OFQ (peptide)", "values": [{"measurement": "DMR response at 1 μM, CHONOP cells", "setting": "[2]", "value": 271, "unit": "pm"}]}, {"compound": "Ac-RYYRIK-NH2 (peptide)", "values": [{"measurement": "DMR response at 1 μM, CHONOP cells", "setting": "[2]", "value": 182, "unit": "pm"}]}, {"compound": "CC[C@H](C)[C@H](NC(=O)[C@H](CCCNC(=N)N)NC(=O)[C@H](Cc1ccc(O)cc1)NC(=O)[C@H](Cc1ccc(O)cc1)NC(=O)[C@H](CCCNC(=N)N)NC(C)=O)C(=O)N[C@@H](CCCCN)C(N)=O", "note": "[Ac-RYYRIK-NH2]", "values": [{"measurement": "DMR response, CHO", "setting": "CHO cells; [9]", "value": "17±8", "unit": "pm"}, {"measurement": "intrinsic activity (α)", "setting": "human NOP receptor [3]", "value": 0.89}, {"measurement": "Emax", "setting": "human NOP receptor [3]; CHONOP cells", "value": 182}, {"measurement": "DMR response, CHONOP", "setting": "human NOP receptor [3]; [10]", "value": "182±11 ^* pm"}, {"measurement": "maximal effects compared with N/OFQ", "setting": "human NOP receptor [3]; CHONOP", "value": "not statistically different to those of N/OFQ"}, {"measurement": "negative DMR signal", "setting": "human NOP receptor [3]; after 1000 sec, in some but not all experiments", "value": "concentration dependent negative signal after 1000 sec"}, {"measurement": "efficacy vs N/OFQ, GTPγS binding", "setting": "NOP receptor", "value": "significantly lower efficacy than N/OFQ"}, {"measurement": "efficacy vs N/OFQ, NOP/G protein interaction", "setting": "NOP receptor", "value": "significantly lower efficacy than N/OFQ"}, {"measurement": "sensitivity of DMR response to PTX", "setting": "human NOP receptor [4]", "value": "equally sensitive to PTX"}, {"measurement": "sensitivity of DMR response to SB-612111", "setting": "human NOP receptor [5]; comparison N/OFQ and Ac-RYYRIK-NH2", "value": "equally sensitive to PTX and to the NOP selective antagonist SB-612111"}]}, {"compound": "UFP-101 (peptide)", "values": [{"measurement": "pKB (antagonist potency): rightward shift by 1 μM UFP-101 of the concentration response curve to N/OFQ at the NOP receptor, DMR, CHONOP cells", "setting": "[1]", "value": "7.6 -log10(M)"}, {"measurement": "DMR response at 1 μM, CHONOP cells (not marked as different from buffer)", "setting": "[2]", "value": 40, "unit": "pm"}]}, {"compound": "CC(C)C1CCC(N2CCC(N3C(=O)C(=O)c4ccccc43)CC2)CC1", "note": "(centres unmarked) [AT-090]", "values": [{"measurement": "DMR response, CHO", "setting": "CHO cells; [9]", "value": "21±3", "unit": "pm"}, {"measurement": "intrinsic activity (α)", "setting": "human NOP receptor [3]", "value": 1.23}, {"measurement": "Emax", "setting": "human NOP receptor [3]; CHONOP cells", "value": 252}, {"measurement": "DMR response, CHONOP", "setting": "human NOP receptor [3]; [10]", "value": "252±15 ^* pm"}, {"measurement": "maximal effects compared with N/OFQ", "setting": "human NOP receptor [3]; CHONOP", "value": "not statistically different to those of N/OFQ"}, {"measurement": "efficacy vs N/OFQ, GTPγS binding", "setting": "NOP receptor", "value": "significantly lower efficacy than N/OFQ"}, {"measurement": "efficacy vs N/OFQ, NOP/G protein interaction", "setting": "NOP receptor", "value": "significantly lower efficacy than N/OFQ"}]}, {"compound": "Dermorphin (peptide)", "values": [{"measurement": "pEC50 of the DMR response, CHO cells expressing the mu opioid receptor", "setting": "mu opioid receptor", "value": "8.59 -log10(M)"}]}, {"compound": "[F/G]N/OFQ(1–13)-NH2 (peptide)", "values": [{"measurement": "intrinsic activity α (Emax relative to N/OFQ), DMR, CHONOP cells (relative to N/OFQ)", "setting": "[1]", "value": 0.98}, {"measurement": "pEC50 of the DMR response (peak), CHONOP cells", "setting": "[1]", "value": "8.06 -log10(M)"}, {"measurement": "DMR response at 1 μM, CHONOP cells", "setting": "[2]", "value": 200, "unit": "pm"}]}, {"compound": "CCn1c(=O)n(C2=C(CO)CN(CC3CCCCCCC3)CC2)c2ccccc21", "note": "[Trap-101]", "values": [{"measurement": "activity in NOP transfected neurons", "setting": "[6]", "value": "inverse agonists"}, {"measurement": "activity in control neurons", "setting": "[7]", "value": "pure antagonists"}]}, {"compound": "Nc1ncnc2c1ncn2[C@@H]1O[C@H](COP(=O)(O)OP(=O)(O)OP(=O)(O)O)[C@@H](O)[C@H]1O", "note": "[ATP]", "values": [{"measurement": "DMR response, CHO", "setting": "CHO cells; 100 μM, * p < 0.05 vs buffer", "value": "177±15 ^* pm"}, {"measurement": "DMR response, CHONOP", "setting": "human NOP receptor [3]; [11]", "value": "185±12 ^* pm"}]}, {"compound": "[Nphe^1]N/OFQ(1–13)-NH2 (peptide)", "values": [{"measurement": "DMR response at 1 μM, CHONOP cells", "setting": "[2]", "value": 180, "unit": "pm"}]}, {"compound": "O=C1NCN(c2ccccc2)C12CCN(C1Cc3cccc4cccc1c34)CC2", "note": "(centres unmarked) [Ro 65–6570]", "values": [{"measurement": "activity in wild type CHO cells", "setting": "CHO cells; 10 μM", "value": "exhibited a DMR response in wild type CHO cells"}, {"measurement": "DMR response, CHO", "setting": "CHO cells; [9]", "value": "23±8", "unit": "pm"}]}, {"compound": "C=C[C@@]1(C)CC(=O)[C@]2(O)[C@@]3(C)[C@@H](O)CCC(C)(C)[C@@H]3[C@H](O)[C@H](OC(C)=O)[C@@]2(C)O1", "note": "[FSK]", "values": [{"measurement": "DMR response, CHO", "setting": "CHO cells; 100 μM, * p < 0.05 vs buffer", "value": "-172±23 ^* pm"}, {"measurement": "DMR response, CHONOP", "setting": "human NOP receptor [3]; [11]", "value": "-164±15 ^* pm"}]}, {"compound": "Cc1cccc2c1CC[C@H](CN1CCC(c3c(Cl)cccc3Cl)CC1)C[C@@H]2O", "note": "[SB-612111, (-)-cis-1-methyl-7-[[4-(2,6-dichlorophenyl)piperidin-1-yl]methyl]-6,7,8,9-tetrahy dro-5H-benzocyclohepten-5-ol]", "values": [{"measurement": "effect on N/OFQ maximal effects (Schild)", "setting": "human NOP receptor [8]; 10 nM–1 μM", "value": "without significantly affecting its maximal effects"}, {"measurement": "Schild slope", "setting": "human NOP receptor [8]; vs N/OFQ, Schild plot", "value": "~1"}, {"measurement": "DMR response, CHO", "setting": "CHO cells; [9]", "value": "26±3", "unit": "pm"}, {"measurement": "effect per se in CHONOP cells", "setting": "human NOP receptor [3]; CHONOP cells", "value": "did not produce any effect per se"}, {"measurement": "pEC50", "setting": "human NOP receptor [3]; CHONOP cells, 37°C", "value": "inactive"}, {"measurement": "DMR response, CHONOP", "setting": "human NOP receptor [3]; [10]", "value": "-10±9", "unit": "pm"}]}, {"compound": "C=CCN1CC[C@]23c4c5ccc(O)c4O[C@H]2C(=O)CC[C@@]3(O)[C@H]1C5", "note": "[Naloxone]", "values": [{"measurement": "DMR response, CHO", "setting": "CHO cells; [9]", "value": "23±5", "unit": "pm"}]}, {"compound": "PWT2-N/OFQ (peptide)", "values": [{"measurement": "intrinsic activity α (Emax relative to N/OFQ), DMR, CHONOP cells (relative to N/OFQ)", "setting": "[1]", "value": 0.97}, {"measurement": "pEC50 of the DMR response (peak), CHONOP cells, tested up to 0.1 μM", "setting": "[1]", "value": "8 -log10(M)"}, {"measurement": "DMR response at 0.1 μM, CHONOP cells", "setting": "[2]", "value": 198, "unit": "pm"}]}, {"compound": "C[C@H](NC(=O)CNC(=O)[C@@H](NC(=O)[C@H](Cc1ccccc1)NC(=O)CNC(=O)CNC(=O)CNCc1ccccc1)[C@@H](C)O)C(=O)N[C@@H](CCCNC(=N)N)C(=O)N[C@@H](CCCCN)C(=O)N[C@@H](CO)C(=O)N[C@@H](C)C(=O)N[C@@H](CCCNC(=N)N)C(=O)N[C@@H](CCCCN)C(=O)N[C@@H](CCCNC(=N)N)C(=O)N[C@@H](CCCCN)C(=O)N[C@@H](CC(N)=O)C(=O)N[C@@H](CCC(N)=O)C(N)=O", "note": "[UFP-101, [Nphe1,Arg14,Lys15]nociceptin-NH2]", "values": [{"measurement": "pEC50", "setting": "human NOP receptor [3]; CHONOP cells, 37°C", "value": "crc incomplete"}, {"measurement": "stimulatory effect per se", "setting": "human NOP receptor [3]; CHONOP, % of the maximal effects of N/OFQ", "value": "~20", "unit": "%"}, {"measurement": "Kb", "setting": "human NOP receptor [5]", "value": 25.1, "unit": "nM"}]}]}
